The results in this text go back to US9469615B2, “Quinoxalines and AZA-quinoxalines as CRTH2 receptor modulators” (Merck Sharp & Dohme Corp., priority 2010, dated 2016).

The target in the first test is T1, hCRTH2 (Homo sapiens, UniProt Q9Y5Y4).
T1 construct: expressed in transfected cells; host or cells: HEK (human embryonic kidney) cells expressing hCRTH2; membrane preparation
T1 sequence (Q9Y5Y4 1-395): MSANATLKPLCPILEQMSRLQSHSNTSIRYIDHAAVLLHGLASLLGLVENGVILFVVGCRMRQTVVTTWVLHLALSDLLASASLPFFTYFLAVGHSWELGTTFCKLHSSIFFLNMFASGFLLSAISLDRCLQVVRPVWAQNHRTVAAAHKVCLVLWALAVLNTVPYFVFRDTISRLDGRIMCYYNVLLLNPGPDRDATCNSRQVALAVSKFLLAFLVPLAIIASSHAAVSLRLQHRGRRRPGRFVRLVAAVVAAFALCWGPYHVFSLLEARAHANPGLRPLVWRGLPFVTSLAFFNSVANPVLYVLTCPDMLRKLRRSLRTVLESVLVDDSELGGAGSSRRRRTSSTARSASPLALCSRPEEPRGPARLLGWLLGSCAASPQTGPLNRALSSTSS
Put plainly: Radioligand binding assay ([3H]PGD2 competition, HEK-hCRTH2 membranes). To be noted: [3H]PGD2 binding, rated A-E (Table A). How it is done:
Biological Assays Radioligand Binding Assay.
Radioligand binding assays were performed at room temperature in 50 mM Tris-HCl pH 7.4, 1 mM EDTA containing 2 mM MnCl2 and 3.0 nM [^3H]PGD2 (New England Nuclear, Boston, Mass.) (171 Ci mmol^−1), in a final volume of 0.2 mL. Competing ligands were diluted in dimethylsulfoxide (Me2SO) that was kept constant at 1% (v/v) of the final incubation volume. The reaction was initiated by the addition of 8-20 μg of membrane protein prepared from a human embryonic kidney (HEK)-hCRTH2 cell line. Total and non-specific binding were determined in the absence and the presence of 10 μM PGD2, respectively. […] The reaction was routinely conducted for 60 min at room temperature and terminated by rapid filtration through prewetted (0.3% polyethyleneimine) 96-well printed Filtermate™ (Wallac) using a Tomtec® harvester (Hamden, Conn.). After washing with cold buffer, the filter was dried for 2 minutes in microwave, and Meltilex Scintillator sheet (Wallac) was melted on for 2 min. The radioactivity was measured with Betaplate model 1205 (Wallac).
`O=C(O)CCCCc1nc2cc(C(=O)N3CCN(c4ccccc4)CC3)ccc2nc1-c1ccccc1` [15AN, 5-{3-phenyl-7-[(4-phenylpiperazin-1-yl)carbonyl]quinoxalin-2-yl}pentanoic acid]: the Ki (usually a dissociation constant, usually derived from enzyme kinetics or from competition with a known ligand) fell in the range of 2.1 to 20 nM. On the same count and under the same terms, the value for `O=C(O)CCCCc1nc2cc(C(=O)N3CCc4ccccc4C3)ccc2nc1-c1ccccc1` [15AP, 5-[7-(3,4-dihydroisoquinolin-2(1H)-ylcarbonyl)-3-phenylquinoxalin-2-yl]pentanoic acid] was 2.1 to 20 nM. `O=C(O)CCCCc1nc2cc(C(=O)NC3c4ccccc4CC3O)ccc2nc1-c1ccccc1` (stereo not drawn) [15AQ, 5-{7-[(2-hydroxy-2,3-dihydro-1H-inden-1-yl)carbamoyl]-3-phenylquinoxalin-2-yl}pentanoic acid] had a Ki of 2.1 to 20 nM.

On to `O=C(O)CCCCc1nc2cc(C(=O)NC3CCCc4ccccc43)ccc2nc1-c1ccccc1` (stereo not drawn) [15AR, 5-[3-phenyl-7-(1,2,3,4-tetrahydronaphthalen-1-ylcarbamoyl)quinoxalin-2-yl]pentanoic acid], for which the Ki lay in the range of 0.1 to 2 nM. The molecule `CCNC(=O)c1ccc2nc(-c3ccccc3)c(CCCCC(=O)O)nc2c1` [15AS, 5-[7-(ethylcarbamoyl)-3-phenylquinoxalin-2-yl]pentanoic acid] yielded an inhibition constant (Ki) of 2.1 to 20 nM. Molecule `O=C(O)CCCCc1nc2cc(C(=O)NC3CCc4ccccc43)ccc2nc1-c1ccccc1` (stereo not drawn) [15AT, 5-[7-(2,3-dihydro-1H-inden-1-ylcarbamoyl)-3-phenylquinoxalin-2-yl]pentanoic acid] gave an inhibition constant (Ki) of 0.1 to 2 nM. Take `COc1ccc(C(C)NC(=O)c2ccc3nc(-c4ccccc4)c(CCCCC(=O)O)nc3c2)cc1` (stereo not drawn) [15AU, 5-(7-{[1-(4-methoxyphenyl)ethyl]carbamoyl}-3-phenyl-quinoxalin-2-yl) pentanoic acid]: the Ki was 2.1 to 20 nM. Same read-out and setting: then `O=C(O)CCCCc1nc2cc(C(=O)NCc3ccc(OC(F)(F)F)cc3)ccc2nc1-c1ccccc1` [15AV, 5-(3-phenyl-7-{[4-(trifluoromethoxy)benzyl]carbamoyl}quinoxalin-2-yl)pentanoic acid], with 0.1 to 2 nM; and `Cc1ccc(CNC(=O)c2ccc3nc(-c4ccccc4)c(CCCCC(=O)O)nc3c2)cc1` [15AW, 5-{7-[(4-methylbenzyl)carbamoyl]-3-phenylquinoxalin-2-yl}pentanoic acid], with 0.1 to 2 nM. Same read-out and setting: then `C[C@@H](NC(=O)c1ccc2nc(-c3ccccc3)c(CCCCC(=O)O)nc2c1)c1ccc(Cl)cc1` [15AX, 5-(7-{[(1R)-1-(4-chlorophenyl)ethyl]carbamoyl}-3-phenyl-quinoxalin-2-yl)pentanoic acid], with 2.1 to 20 nM; and `Cc1ccc([C@@H](C)NC(=O)c2ccc3nc(-c4ccccc4)c(CCCCC(=O)O)nc3c2)cc1` [15AY, 5-(7-{[(1R)-1-(4-methylphenyl)ethyl]carbamoyl}-3-phenyl-quinoxalin-2-yl)pentanoic acid], with 2.1 to 20 nM.

Regarding `CCc1ccc(CNC(=O)c2ccc3nc(-c4ccccc4)c(CCCCC(=O)O)nc3c2)cc1` [15AZ, 5-{7-[(4-ethylbenzyl)carbamoyl]-3-phenylquinoxalin-2-yl}pentanoic acid], the Ki lay in the range of 2.1 to 20 nM. Still for that read-out and setting: the value for `O=C(O)CCCCc1nc2cc(C(=O)N3CCC(c4ccccc4)CC3)ccc2nc1-c1ccccc1` [15Ai, 5-{3-phenyl-7-[(4-phenylpiperidin-1-yl)carbonyl]quinoxalin-2-yl}pentanoic acid] was 0.1 to 2 nM; that for `CN(Cc1ccccc1)C(=O)c1ccc2nc(-c3ccccc3)c(CCCCC(=O)O)nc2c1` [15Ao, 5-{7-[benzyl(methyl)carbamoyl]-3-phenylquinoxalin-2-yl}pentanoic acid] was 0.1 to 2 nM; that for `C[C@H](NC(=O)c1ccc2nc(-c3ccccc3)c(CCCCC(=O)O)nc2c1)c1ccccc1` [15B, 5-(3-phenyl-7-{[(1S)-1-phenylethyl]carbamoyl}quinoxalin-2-yl) pentanoic acid] was 2.1 to 20 nM. `COc1ccc(CNC(=O)c2ccc3nc(-c4ccccc4)c(CCCCC(=O)O)nc3c2)cc1` [15BA, 5-{7-[(4-methoxybenzyl)carbamoyl]-3-phenylquinoxalin-2-yl}pentanoic acid] yielded a Ki of 0.1 to 2 nM. The same measure, in the same setting: then `N#Cc1ccc(CNC(=O)c2ccc3nc(-c4ccccc4)c(CCCCC(=O)O)nc3c2)cc1` [15BB, 5-{7-[(4-cyanobenzyl)carbamoyl]-3-phenylquinoxalin-2-yl}pentanoic acid], with 2.1 to 20 nM; and `Cc1ccc([C@H](C)NC(=O)c2ccc3nc(-c4ccccc4)c(CCCCC(=O)O)nc3c2)cc1` [15BC, 5-(7-{[(1S)-1-(4-methylphenyl)ethyl]carbamoyl}-3-phenylquinoxalin-2-yl)pentanoic acid], with 2.1 to 20 nM; and `CC(NC(=O)c1ccc2nc(-c3ccccc3)c(CCCCC(=O)O)nc2c1)c1ccc(OC(F)(F)F)cc1` (stereo not drawn) [15BD, 5-[3-phenyl-7-({1-[4-(trifluoromethoxy)phenyl]ethyl}carbamoyl)quinoxalin-2-yl] pentanoic acid], with 2.1 to 20 nM. On the same count and under the same terms, the value for `O=C(O)CCCCc1nc2cc(C(=O)N3CCCC3)ccc2nc1-c1ccccc1` [15BE, 5-[3-phenyl-7-(pyrrolidin-1-ylcarbonyl)quinoxalin-2-yl]pentanoic aicd] was 2.1 to 20 nM; that for `O=C(O)CCCCc1nc2cc(C(=O)N3CCCCC3)ccc2nc1-c1ccccc1` [15BF, 5-[3-phenyl-7-(piperidin-1-ylcarbonyl)quinoxalin-2-yl] pentanoic acid] was 2.1 to 20 nM. Molecule `CNC(=O)c1ccc2nc(-c3ccccc3)c(CCCCC(=O)O)nc2c1` [15BG, 5-[7-(methylcarbamoyl)-3-phenylquinoxalin-2-yl]pentanoic acid] registered an inhibitory constant (Ki) of 2.1 to 20 nM.

Turning to `CC(NC(=O)c1ccc2nc(-c3ccccc3)c(CCCCC(=O)O)nc2c1)c1ccccc1F` (stereo not drawn) [15BH, 5-(7-{[1-(2-fluorophenyl)ethyl]carbamoyl}-3-phenylquinoxalin-2-yl)pentanoic acid], the Ki lay within 2.1 to 20 nM. With `CON(C)C(=O)c1ccc2nc(-c3ccccc3)c(CCCCC(=O)O)nc2c1` [15BJ, 5-{7-[methoxy(methyl)carbamoyl]-3-phenylquinoxalin-2-yl}pentanoic acid], the Ki is 2.1 to 20 nM. The same measure, in the same setting: then `O=C(O)CCCCc1nc2cc(C(=O)NC3Cc4ccccc4C3)ccc2nc1-c1ccccc1` [15BK, 5-[7-(2,3-dihydro-1H-inden-2-ylcarbamoyl)-3-phenylquinoxalin-2-yl]pentanoic acid], with 0.1 to 2 nM; and `C[C@@H](NC(=O)c1ccc2nc(-c3ccccc3)c(CCCCC(=O)O)nc2c1)c1ccccc1C(F)(F)F` [15BL, 5-[3-phenyl-7-({(1R)-1-[2-(trifluoromethyl)phenyl]ethyl}carbamoyl)quinoxalin-2-yl]pentanoic acid], with 20.1 to 200 nM; and `C[C@H](NC(=O)c1ccc2nc(-c3ccccc3)c(CCCCC(=O)O)nc2c1)c1ccc(Cl)cc1` [15BM, 5-(7-{[(1S)-1-(4-chlorophenyl)ethyl]carbamoyl}-3-phenylquinoxalin-2-yl)pentanoic acid], with 2.1 to 20 nM. Molecule `O=C(O)CCCCc1nc2cc(C(=O)NCCCN3CCCC3=O)ccc2nc1-c1ccccc1` [15BN, 5-(7-{[3-(2-oxopyrrolidin-1-yl)propyl]carbamoyl}-3-phenylquinoxalin-2-yl)pentanoic acid] registered a Ki of 2.1 to 20 nM. Turning to `Cc1cn(C2CCN(C(=O)c3ccc4nc(-c5ccccc5)c(CCCCC(=O)O)nc4c3)CC2)nn1` [15BQ, 5-(7-{[4-(4-methyl-1H-1,2-3-triazol-1-yl)piperidin-1-yl]carbonyl}-3-phenylquinoxalin-2-yl) pentanoic acid], the Ki fell in the range of 2.1 to 20 nM.

Molecule `Cc1cnnn1C1CCN(C(=O)c2ccc3nc(-c4ccccc4)c(CCCCC(=O)O)nc3c2)CC1` [15BR, 5-(7-{[4-(5-methyl-1H-1,2,3-triazol-1-yl)piperidin-1-yl]carbonyl}-3-phenylquinoxalin-2-yl)pentanoic acid] registered a Ki of 0.1 to 2 nM.

Turning to `O=C(O)CCCCc1nc2cc(C(=O)N3CCC(c4cnccn4)CC3)ccc2nc1-c1ccccc1` [15BS, 5-{3-phenyl-7-[(4-pyrazin-2-ylpiperidin-1-yl)carbonyl]quinoxalin-2-yl}pentanoic acid], the inhibition constant (Ki) is 2.1 to 20 nM. On to `O=C(O)CCCCc1nc2cc(C(=O)NCc3cc(Cl)ccn3)ccc2nc1-c1ccccc1` [15BT, 5-(7-{[(4-chloropyridin-2-yl)methyl]carbamoyl}-3-phenylquinoxalin-2-yl)pentanoic acid], for which the inhibitory constant (Ki) lay in the range of 0.1 to 2 nM. Regarding `O=C(O)CCCCc1nc2cc(C(=O)NCc3cccc(Cl)n3)ccc2nc1-c1ccccc1` [15BU, 5-(7-{[(6-chloropyridin-2-yl)methyl]carbamoyl}-3-phenylquinoxalin-2-yl)pentanoic acid], the inhibitory constant (Ki) was in the range of 0.1 to 2 nM.

Staying with this test, now noted: [3H]PGD2 binding, values in text.
Molecule `O=C(O)CCCCc1nc2cc(C(=O)NC3CCCc4ccccc43)ccc2nc1-c1ccccc1` (stereo not drawn) [15AR, 5-[3-phenyl-7-(1,2,3,4-tetrahydronaphthalen-1-ylcarbamoyl)quinoxalin-2-yl]pentanoic acid] returned an inhibitory constant (Ki) of 1.6 nM. Regarding `C[C@@H](NC(=O)c1ccc2nc(-c3ccccc3)c(CCCCC(=O)O)nc2c1)c1ccc(Cl)cc1` [15AX, 5-(7-{[(1R)-1-(4-chlorophenyl)ethyl]carbamoyl}-3-phenyl-quinoxalin-2-yl)pentanoic acid], the inhibition constant (Ki) stood at 3 nM. `O=C(O)CCCCc1nc2cc(C(=O)N3CCC(c4ccccc4)CC3)ccc2nc1-c1ccccc1` [15Ai, 5-{3-phenyl-7-[(4-phenylpiperidin-1-yl)carbonyl]quinoxalin-2-yl}pentanoic acid] gave a Ki of 1.9 nM. Turning to `CN(Cc1ccccc1)C(=O)c1ccc2nc(-c3ccccc3)c(CCCCC(=O)O)nc2c1` [15Ao, 5-{7-[benzyl(methyl)carbamoyl]-3-phenylquinoxalin-2-yl}pentanoic acid], the inhibition constant Ki stood at 1 nM. As for `C[C@@H](NC(=O)c1ccc2nc(-c3ccccc3)c(CCCCC(=O)O)nc2c1)c1ccccc1C(F)(F)F` [15BL, 5-[3-phenyl-7-({(1R)-1-[2-(trifluoromethyl)phenyl]ethyl}carbamoyl)quinoxalin-2-yl]pentanoic acid], the affinity, expressed as Ki, was 69.9 nM. Same read-out and setting: the value for `Cc1cnnn1C1CCN(C(=O)c2ccc3nc(-c4ccccc4)c(CCCCC(=O)O)nc3c2)CC1` [15BR, 5-(7-{[4-(5-methyl-1H-1,2,3-triazol-1-yl)piperidin-1-yl]carbonyl}-3-phenylquinoxalin-2-yl)pentanoic acid] was 0.1 nM.
